From the OPERA property sets (Mansouri et al. 2018)

logP | Compound
1.76 | O=C(CN1CCCC1)NC1COc2ccccc21 (centres undefined)
4.24 | CCCCN(CCCC)CC(=O)NC1COc2cc(OC)ccc21 (centres undefined)
2.88 | CCN(CC)CC(=O)NC1COc2ccc(Cl)cc21 (centres undefined)
4.15 | CCCCN(CCCC)CC(=O)NC1COc2ccccc21 (centres undefined)
3.01 | O=C(CN1CCCCC1)NC1COc2ccc(Cl)cc21 (centres undefined)
2.24 | Cc1ccc2c(c1)C(NC(=O)CN1CCCC1)CO2 (centres undefined)
4.44 | CCCCN(CCCC)CC(=O)NC1COc2ccc(Cl)cc21 (centres undefined)
4.43 | CCCCN(CCCC)CC(=O)NC1COc2ccc(C)cc21 (centres undefined)
2.47 | O=C(CN1CCCC1)NC1COc2ccc(Cl)cc21 (centres undefined)
0.92 | COc1ccc2c(c1)OCC2NC(=O)CN1CCOCC1 (centres undefined)
1.55 | O=C(CN1CCOCC1)NC1COc2ccc(Cl)cc21 (centres undefined)
2.41 | COc1ccc2c(c1)OCC2NC(=O)CN1CCCCC1 (centres undefined)
2.78 | Cc1ccc2c(c1)C(NC(=O)CN1CCCCC1)CO2 (centres undefined)
2.69 | CCN(CC)CC(=O)NC1COc2ccc(C)cc21 (centres undefined)
2.3 | O=C(CN1CCCCC1)NC1COc2ccccc21 (centres undefined)
1.92 | COc1ccc2c(c1)OCC2NC(=O)CN1CCCC1 (centres undefined)
2.2 | CCN(CC)CC(=O)NC1COc2ccccc21 (centres undefined)
0.81 | O=C(CN1CCOCC1)NC1COc2ccccc21 (centres undefined)
1.38 | Cc1ccc2c(c1)C(NC(=O)CN1CCOCC1)CO2 (centres undefined)
